Drawing on patent US11649255B2, “Indazoles as hematopoietic progenitor kinase 1 (HPK1) inhibitors and methods using same” (1st Biotherapeutics, Inc., priority 2020, dated 2023), this text covers IC50 for 31 molecules.

The experiment deals with recombinant human HPK1 (Homo sapiens (Human), UniProt Q92918). In words: HPK1 kinase assay (ADP-Glo). It counts as biochemical. The conditions noted are these: 25 μM ATP, MBP substrate. The essentials: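 Activity was read as ADP formed, detected by ADP-Glo luminescence after the reaction of 5 ng recombinant human HPK1 with MBP and ATP (stocks 0.5 μg/μl and 25 μM) for 40 min at 30 °C. Buffer was Tris pH 7.5 with MgCl2, BSA and DTT, with compound in 0.5% DMSO. IC50 came from inhibition curves.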
(In ADP-Glo the light output rises with the ADP produced.)

Some results are limits rather than exact numbers.

Sequence of recombinant human HPK1 (Q92918 whole entry): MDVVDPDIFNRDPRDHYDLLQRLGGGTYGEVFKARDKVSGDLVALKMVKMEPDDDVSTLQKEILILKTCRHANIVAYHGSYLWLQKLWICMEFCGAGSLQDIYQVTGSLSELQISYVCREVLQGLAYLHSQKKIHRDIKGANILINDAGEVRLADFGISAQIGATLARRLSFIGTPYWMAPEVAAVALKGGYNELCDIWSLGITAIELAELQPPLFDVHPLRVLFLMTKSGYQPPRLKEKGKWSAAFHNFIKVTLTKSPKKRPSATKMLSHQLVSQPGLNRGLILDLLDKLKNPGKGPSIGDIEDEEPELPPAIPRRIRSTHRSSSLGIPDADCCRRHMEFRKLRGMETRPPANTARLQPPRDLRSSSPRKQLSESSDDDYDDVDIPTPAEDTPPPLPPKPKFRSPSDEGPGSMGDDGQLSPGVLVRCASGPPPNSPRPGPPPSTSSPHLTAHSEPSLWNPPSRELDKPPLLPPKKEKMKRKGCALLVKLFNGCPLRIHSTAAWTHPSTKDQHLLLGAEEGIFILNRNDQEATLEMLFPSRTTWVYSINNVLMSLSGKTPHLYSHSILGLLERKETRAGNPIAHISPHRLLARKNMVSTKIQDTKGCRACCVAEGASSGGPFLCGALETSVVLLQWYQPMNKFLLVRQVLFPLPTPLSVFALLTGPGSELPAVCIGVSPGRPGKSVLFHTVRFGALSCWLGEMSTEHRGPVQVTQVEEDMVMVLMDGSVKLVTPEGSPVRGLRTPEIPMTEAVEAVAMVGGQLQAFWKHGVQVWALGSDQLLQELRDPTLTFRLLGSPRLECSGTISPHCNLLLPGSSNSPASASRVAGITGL

Regarding `C=Cc1c(F)cc2[nH]ncc2c1-c1ccn2nc(NC(=O)[C@@H]3C[C@@H]3F)cc2c1` [Example 447, (1S,2S)-2-fluoro-N-(5-(6-fluoro-5-vinyl-1H-indazol-4-yl)pyrazolo[1,5-a]pyridin-2-yl)cyclopropane-1-carboxamide], the IC50 (in general, the concentration at which inhibition is half-maximal) was < 100 nM. For `O=C(Nc1cc2cc(-c3c(Cl)ccc4[nH]ncc34)ccn2n1)[C@@H]1C[C@@H]1F` [Example 448, (1S,2S)-N-(5-(5-chloro-1H-indazol-4-yl)pyrazolo[1,5-a]pyridin-2-yl)-2-fluorocyclopropane-1-carboxamide], the IC50 is < 100 nM. With `COc1ccc2[nH]ncc2c1-c1ccn2nc(NC(=O)[C@@H]3C[C@@H]3F)cc2c1` [Example 449, (1S,2S)-2-fluoro-N-(5-(5-methoxy-1H-indazol-4-yl)pyrazolo[1,5-a]pyridin-2-yl)cyclopropane-1-carboxamide] the figure was 101 to 500 nM; with `CN(C)c1ccc2[nH]ncc2c1-c1ccn2nc(NC(=O)[C@@H]3C[C@@H]3F)cc2c1` [Example 450, (1S,2S)-N-(5-(5-(dimethylamino)-1H-indazol-4-yl)pyrazolo[1,5-a]pyridin-2-yl)-2-fluorocyclopropane-1-carboxamide], > 1000 nM; with `O=C(Nc1cc2cc(-c3c(C(F)(F)F)ccc4[nH]ncc34)ccn2n1)[C@@H]1C[C@@H]1F` [Example 451, (1S,2S)-2-fluoro-N-(5-(5-(trifluoromethyl)-1H-indazol-4-yl)pyrazolo[1,5-a]pyridin-2-yl)cyclopropane-1-carboxamide], < 100 nM.

`CCc1ccc2[nH]ncc2c1-c1ccn2nc(NC(=O)[C@@H]3C[C@@H]3F)cc2c1` [Example 452, (1S,2S)-N-(5-(5-ethyl-1H-indazol-4-yl)pyrazolo[1,5-a]pyridin-2-yl)-2-fluorocyclopropane-1-carboxamide]: the IC50 is < 100 nM. With `CC(=O)c1ccc2[nH]ncc2c1-c1ccn2nc(NC(=O)[C@@H]3C[C@@H]3F)cc2c1` [Example 453, (1S,2S)-N-(5-(5-acetyl-1H-indazol-4-yl)pyrazolo[1,5-a]pyridin-2-yl)-2-fluorocyclopropane-1-carboxamide], the IC50 is 501 to 1000 nM. To `CN(C)c1c(F)cc2[nH]ncc2c1-c1ccn2nc(NC(=O)[C@@H]3C[C@@H]3F)cc2c1` [Example 454, (1S,2S)-N-(5-(5-(dimethylamino)-6-fluoro-1H-indazol-4-yl)pyrazolo[1,5-a]pyridin-2-yl)-2-fluorocyclopropane-1-carboxamide] belongs 101 to 500 nM; to `O=C(Nc1cc2cc(-c3c(Br)ccc4[nH]ncc34)ccn2n1)[C@@H]1C[C@@H]1F` [Example 455, (1S,2S)-N-(5-(5-bromo-1H-indazol-4-yl)pyrazolo[1,5-a]pyridin-2-yl)-2-fluorocyclopropane-1-carboxamide], < 100 nM. To `N#Cc1ccc2[nH]ncc2c1-c1ccn2nc(NC(=O)[C@@H]3C[C@@H]3F)cc2c1` [Example 456, (1S,2S)-N-(5-(5-cyano-1H-indazol-4-yl)pyrazolo[1,5-a]pyridin-2-yl)-2-fluorocyclopropane-1-carboxamide] belongs 501 to 1000 nM; to `O=C(Nc1cc2cc(-c3c(C4CC4)c(F)cc4[nH]ncc34)ccn2n1)[C@@H]1C[C@@H]1F` [Example 457, (1S,2S)-N-(5-(5-cyclopropyl-6-fluoro-1H-indazol-4-yl)pyrazolo[1,5-a]pyridin-2-yl)-2-fluorocyclopropane-1-carboxamide], < 100 nM; to `O=C(Nc1cc2cc(-c3c(Cl)c(F)cc4[nH]ncc34)ccn2n1)[C@@H]1C[C@@H]1F` [Example 458, (1S,2S)-N-(5-(5-chloro-6-fluoro-1H-indazol-4-yl)pyrazolo[1,5-a]pyridin-2-yl)-2-fluorocyclopropane-1-carboxamide], < 100 nM. With `O=C(Nc1cc2cc(-c3c(C4CC4)ccc4[nH]ncc34)ccn2n1)[C@@H]1C[C@@H]1F` [Example 459, (1S,2S)-N-(5-(5-cyclopropyl-1H-indazol-4-yl)pyrazolo[1,5-a]pyridin-2-yl)-2-fluorocyclopropane-1-carboxamide] the figure was 101 to 500 nM.

Regarding `Cc1c(F)cc2[nH]ncc2c1-c1ccn2nc(NC(=O)[C@@H]3C[C@@H]3F)cc2c1` [Example 460, (1S,2S)-2-fluoro-N-(5-(6-fluoro-5-methyl-1H-indazol-4-yl)pyrazolo[1,5-a]pyridin-2-yl)cyclopropane-1-carboxamide], the IC50 was < 100 nM.

On to `O=C(Nc1cc2cc(-c3c(CO)ccc4[nH]ncc34)ccn2n1)[C@@H]1C[C@@H]1F` [Example 461, (1S,2S)-2-fluoro-N-(5-(5-(hydroxymethyl)-1H-indazol-4-yl)pyrazolo[1,5-a]pyridin-2-yl)cyclopropane-1-carboxamide], for which the IC50 is > 1000 nM. To `CC(C)c1c(F)cc2[nH]ncc2c1-c1ccn2nc(NC(=O)[C@@H]3C[C@@H]3F)cc2c1` [Example 462, (1S,2S)-2-fluoro-N-(5-(6-fluoro-5-isopropyl-1H-indazol-4-yl)pyrazolo[1,5-a]pyridin-2-yl)cyclopropane-1-carboxamide] belongs < 100 nM; to `CSc1ccc2[nH]ncc2c1-c1ccn2nc(NC(=O)[C@@H]3C[C@@H]3F)cc2c1` [Example 463, (1S,2S)-2-fluoro-N-(5-(5-(methylthio)-1H-indazol-4-yl)pyrazolo[1,5-a]pyridin-2-yl)cyclopropane-1-carboxamide], < 100 nM; to `O=C(Nc1cc2cc(-c3c(Br)c(F)cc4[nH]ncc34)ccn2n1)[C@@H]1C[C@@H]1F` [Example 464, (1S,2S)-N-(5-(5-bromo-6-fluoro-1H-indazol-4-yl)pyrazolo[1,5-a]pyridin-2-yl)-2-fluorocyclopropane-1-carboxamide], < 100 nM.

On to `O=C(Nc1cc2cc(-c3c(C(F)F)ccc4[nH]ncc34)ccn2n1)[C@@H]1C[C@@H]1F` [Example 465, (1S,2S)-N-(5-(5-(difluoromethyl)-1H-indazol-4-yl)pyrazolo[1,5-a]pyridin-2-yl)-2-fluorocyclopropane-1-carboxamide], for which the IC50 is < 100 nM.

As for `CCc1c(F)cc2[nH]ncc2c1-c1ccn2nc(NC(=O)[C@@H]3C[C@@H]3F)cc2c1` [Example 466, (1S,2S)-N-(5-(5-ethyl-6-fluoro-1H-indazol-4-yl)pyrazolo[1,5-a]pyridin-2-yl)-2-fluorocyclopropane-1-carboxamide], the IC50 was < 100 nM.

For the molecule `COc1c(F)cc2[nH]ncc2c1-c1ccn2nc(NC(=O)[C@@H]3C[C@@H]3F)cc2c1` [Example 467, (1S,2S)-2-fluoro-N-(5-(6-fluoro-5-methoxy-1H-indazol-4-yl)pyrazolo[1,5-a]pyridin-2-yl)cyclopropane-1-carboxamide], the IC50 was < 100 nM. With `O=C(Nc1cc2cc(-c3c(C(F)F)c(F)cc4[nH]ncc34)ccn2n1)[C@@H]1C[C@@H]1F` [Example 468, (1S,2S)-N-(5-(5-(difluoromethyl)-6-fluoro-1H-indazol-4-yl)pyrazolo[1,5-a]pyridin-2-yl)-2-fluorocyclopropane-1-carboxamide] the figure was < 100 nM.

With `Cc1c(F)cc2[nH]nc(Cl)c2c1-c1ccn2nc(NC(=O)[C@@H]3C[C@@H]3F)cc2c1` [Example 469, (1S,2S)-N-(5-(3-chloro-6-fluoro-5-methyl-1H-indazol-4-yl)pyrazolo[1,5-a]pyridin-2-yl)-2-fluorocyclopropane-1-carboxamide], the IC50 was < 100 nM. With `Cc1c(F)cc2[nH]nc(C)c2c1-c1ccn2nc(NC(=O)[C@@H]3C[C@@H]3F)cc2c1` [Example 470, (1S,2S)-2-fluoro-N-(5-(6-fluoro-3,5-dimethyl-1H-indazol-4-yl)pyrazolo[1,5-a]pyridin-2-yl)cyclopropane-1-carboxamide] the figure was 101 to 500 nM; with `CSc1n[nH]c2cc(F)c(C)c(-c3ccn4nc(NC(=O)[C@@H]5C[C@@H]5F)cc4c3)c12` [Example 471, (1S,2S)-2-fluoro-N-(5-(6-fluoro-5-methyl-3-(methylthio)-1H-indazol-4-yl)pyrazolo[1,5-a]pyridin-2-yl)cyclopropane-1-carboxamide], 101 to 500 nM.

Take `C#Cc1n[nH]c2cc(F)c(C)c(-c3ccn4nc(NC(=O)[C@@H]5C[C@@H]5F)cc4c3)c12` [Example 472, (1S,2S)-N-(5-(3-ethynyl-6-fluoro-5-methyl-1H-indazol-4-yl)pyrazolo[1,5-a]pyridin-2-yl)-2-fluorocyclopropane-1-carboxamide]: the IC50 was > 1000 nM. To `Cc1c(F)cc2[nH]nc(C3CC3)c2c1-c1ccn2nc(NC(=O)[C@@H]3C[C@@H]3F)cc2c1` [Example 473, (1S,2S)-N-(5-(3-cyclopropyl-6-fluoro-5-methyl-1H-indazol-4-yl)pyrazolo[1,5-a]pyridin-2-yl)-2-fluorocyclopropane-1-carboxamide] belongs > 1000 nM; to `C=Cc1n[nH]c2cc(F)c(C)c(-c3ccn4nc(NC(=O)[C@@H]5C[C@@H]5F)cc4c3)c12` [Example 474, (1S,2S)-2-fluoro-N-(5-(6-fluoro-5-methyl-3-vinyl-1H-indazol-4-yl)pyrazolo[1,5-a]pyridin-2-yl)cyclopropane-1-carboxamide], 101 to 500 nM; to `CCc1n[nH]c2cc(F)c(C)c(-c3ccn4nc(NC(=O)[C@@H]5C[C@@H]5F)cc4c3)c12` [Example 475, (1S,2S)-N-(5-(3-ethyl-6-fluoro-5-methyl-1H-indazol-4-yl)pyrazolo[1,5-a]pyridin-2-yl)-2-fluorocyclopropane-1-carboxamide], > 1000 nM. Turning to `O=C(Nc1cc2cc(-c3c(Cl)c(F)c(Cl)c4[nH]ncc34)ccn2n1)[C@@H]1C[C@@H]1F` [Example 476, (1S,2S)-N-(5-(5,7-dichloro-6-fluoro-1H-indazol-4-yl)pyrazolo[1,5-a]pyridin-2-yl)-2-fluorocyclopropane-1-carboxamide], the IC50 is < 100 nM. To `Cc1c(F)c(C)c2[nH]ncc2c1-c1ccn2nc(NC(=O)[C@@H]3C[C@@H]3F)cc2c1` [Example 477, (1S,2S)-2-fluoro-N-(5-(6-fluoro-5,7-dimethyl-1H-indazol-4-yl)pyrazolo[1,5-a]pyridin-2-yl)cyclopropane-1-carboxamide] belongs < 100 nM.
